Laboratory results: patent US4307097A, “Method of reducing increased intracranial pressure” (Tanabe Seiyaku Co., Ltd., priority 1979, dated 1981)

Legend:
intracranial pressure [1] = assay: Effect of i.v. injection of test compounds on intracranial pressure in rats; assay type: in vivo, rat (male SD-strain); conditions: rat, 0 minute = 100
Description: Male SD-strain rats weighing 500 to 800 g (each group consisting of 5 rats) were anesthetized with urethane. […] Intracranial pressure (i.e., cerebrospinal fluid pressure in the cisterna magna) was continuously monitored via a cannula inserted in the cisterna magna. The cannula was connected to a transducer, and recordings were made on graph paper.

[2] = system: common carotid blood flow; assay: Effect of test compounds on common carotid blood flow in cats; assay type: in vivo; conditions: cat, right thyroid artery, 30 seconds after administration, baseline 24.1 ± 0.9 ml/minute
Procedure: A solution of a test compound in an aqueous 10 w/v % maltose solution was injected into the right thyroid artery of the cats. The common carotid artery blood flow was continuously monitored via the flow probe set at the common carotid artery. The flow probe was connected to an electromagnetic flow meter, and recordings were made on graph paper. The effect of the test compound on the common carotid blood flow was estimated 30 seconds after administration of the test compound.

Acute toxicity = conditions: in vivo, mouse, observed for a week
Procedure: The 50% lethal dose (LD50) of the test compound was calculated according to the Weil's method from the number of mice died a week after the administration.

[3] = system: increased intracranial pressure; assay: Effect of i.v. injection on increased intracranial pressure (autologous blood injected into the brain) in rats; assay type: in vivo, rat (male SD-strain); conditions: rat, 0 minute = 100
Procedure: Male SD-strain rats weighing 500 to 800 g (each group consisting of 5 rats) were anesthetized with urethane. 0.03 ml of autologous blood were injected into the brain of the rats to induce an increase in intracranial pressure. The level of increased intracranial pressure in the rats was about twice as high as its initial level 120 to 180 minutes after injection of autologous blood and said increased intracranial pressure was maintained at an approximately same level thereafter. 180 minutes after injection of autologous blood, a solution of a test compound in an aqueous 5 w/v % mannitol solution was infused via the femoral vein of the rats at a rate of 0.2 ml/kg/minute for 40 minutes. Then, the effect of the test compound on the intracranial pressure was calculated according to the following formula: [formula]
Compound No. 4 listed in Example 1 was used in this experiment.

intracranial pressure [4] = assay: Effect of i.v. injection of test compounds on intracranial pressure in beagle dogs; assay type: in vivo, beagle dog (male); conditions: beagle dog, 1.0 mg/kg, 0 minute = 100
Procedure: A solution of a test compound in an aqueous 5 w/v % mannitol solution was infused via the saphenous vein of the beagle dogs at a rate of 0.1 ml/kg/minute for 40 minutes.

[5] = system: increased intracranial pressure; assay: Effect of i.v. injection on increased intracranial pressure (autologous blood injected into the lateral ventricle) in rabbits; assay type: in vivo, rabbit (male); conditions: rabbit, 0 minute = 100
Procedure: Male rabbits weighing 2.8 to 3.2 kg (each group consisting of 6 rabbits) were anethetized with urethane. 0.1 to 0.2 ml of autologous blood were injected into the lateral ventricle of the rabbits to induce a rise in intracranial pressure. The level of intracranial pressure was about 2.3 times as high as its initial level 150 to 180 minutes after injection of autologous blood. 180 minutes after injection of autologous blood, a solution of a test compound in an aqueous 10 w/v % maltose solution was administered intravenously to the rabbits at a rate of 0.1 ml/kg/minute for 20 minutes. Then, the effect of the test compound on the intracranial pressure was calculated in the same manner as described in Example 2. [The initial intracranial pressure (i.e., the normal intracranial pressure measured before injection of autologous blood) was 75±2.6 mm H2 O, and the intracranial pressure measured before administration of test compound was 176±16 mm H2 O.]
Compound 4 listed in Example 1 was used in this experiment.

intracranial pressure [6] = assay: Effect of p.o. administration of test compounds on intracranial pressure in rats; assay type: in vivo, rat (male SD-strain); conditions: rat, 8 mg/kg, 240 minutes, 0 minute = 100
Procedure: Male SD-strain rats weighing 500 to 800 g (each group consisting of 5 rats) were fasted for about 20 hours, and anesthetized with urethane. A suspension of a test compound in aqueous 0.5 w/v % carboxymethyl-cellulosewas administered orally to the rats. Then, the effect of the compound on the intracranial pressure was estimated in the same manner as described in Example 1.
Compound 4 (free base) listed in Example 1 was used in this experiment.

[7] = Therapeutic index (ratio of LD50 to minimum effective dose); assay type: in vivo; conditions: orally or intravenously
Description: Unlike the hypertonic solutions of glycerol or mannitol, the therapeutic effect of the propanol derivative (I) of the present invention is not ascribable to the cerebral dehydrating effect and, therefore, said derivative (I) can be used either orally or parenterally. The propanol derivative (I) may also be used for the treatment of prophylaxis of increased intracranial pressure during and after brain surgical operation. Moreover, the propanol derivative (I) may be used for improving impaired consciousness, nervous disturbance and subjective symptoms (e.g., headache, nausea, vomiting) which are attributed to the cerebral diseases such as those mentioned hereinbefore. Further, whereas it is known that cerebral edema induces a rise in intracranial pressure and increased intracranial pressure serves to cause a build-up of edema which in turn impairs cerebral circulation, the propanol derivative (I) can interrupt this vicious cycle of cerebral diseases because of its potent intracranial pressure-lowering effect and its ability to ameliorate the cerebral circulatory impairment. The toxicity of the propanol derivative (I) of the present invention is low.

SMILES: COc1cc(NC(C)=O)ccc1OCC(O)CN1CCN(c2ccccc2)CC1 (centres unmarked) [Compound 1, 1-(4-acetamido-2-methoxyphenoxy)-3-(4-phenylpiperazino)-2-propanol]
- Changes in intracranial pressure (intracranial pressure [1]; 1.0 mg/kg, 40 minutes): 81.4%
- Changes in intracranial pressure (intracranial pressure [1]; 1.0 mg/kg, 60 minutes): 85.5%
- Changes in intracranial pressure (intracranial pressure [1]; 1.0 mg/kg, 120 minutes): 91.7%
- Changes in intracranial pressure (intracranial pressure [1]; 1.0 mg/kg, 180 minutes): 92.8%

SMILES: COc1cc(NC(C)=O)ccc1OCC(O)CN1CCN(c2ccccc2F)CC1 (centres unmarked) [Compound 5, 1-(4-acetamido-2-methoxyphenoxy)-3-[4-(2-fluorophenyl)piperazino]-2-propanol]
- Changes in intracranial pressure (intracranial pressure [1]; 1.0 mg/kg, 40 minutes): 84.0%
- Changes in intracranial pressure (intracranial pressure [1]; 1.0 mg/kg, 60 minutes): 84.0%
- Changes in intracranial pressure (intracranial pressure [1]; 1.0 mg/kg, 120 minutes): 81.3%
- Changes in intracranial pressure (intracranial pressure [1]; 1.0 mg/kg, 180 minutes): 87.5%

SMILES: COc1cc(NC(C)=O)ccc1OCC(O)CN1CCN(c2cccc(C(F)(F)F)c2)CC1 (centres unmarked) [Compound 6, 1-(4-acetamido-2-methoxyphenoxy)-3-[4-(3-trifluoromethylphenyl)piperazino]-2-propanol]
- Changes in intracranial pressure (intracranial pressure [1]; 1.0 mg/kg, 40 minutes): 97.0%
- Changes in intracranial pressure (intracranial pressure [1]; 1.0 mg/kg, 60 minutes): 95.0%
- Changes in intracranial pressure (intracranial pressure [1]; 1.0 mg/kg, 120 minutes): 90.5%
- Changes in intracranial pressure (intracranial pressure [1]; 1.0 mg/kg, 180 minutes): 92.8%

SMILES: COc1cc(NC(C)=O)ccc1OCC(O)CN1CCN(c2cccc(F)c2)CC1.Cl (centres unmarked) [Compound 4, 1-(4-acetamido-2-methoxyphenoxy)-3-[4-(3-fluorophenyl)piperazino]-2-propanol hydrochloride]
- Increase in common carotid blood flow ([2]; 1 μg/kg): 3.5 ± 0.8 Δml/minute
- Increase in common carotid blood flow ([2]; 5 μg/kg): 6.1 ± 0.6 Δml/minute
- Increase in common carotid blood flow ([2]; 10 μg/kg): 8.8 ± 1.3 Δml/minute
- Changes in intracranial pressure (intracranial pressure [1]; 0.5 mg/kg, 40 minutes): 84.3%
- Changes in intracranial pressure (intracranial pressure [1]; 0.5 mg/kg, 60 minutes): 80.5%
- Changes in intracranial pressure (intracranial pressure [1]; 0.5 mg/kg, 120 minutes): 86.5%
- Changes in intracranial pressure (intracranial pressure [1]; 0.5 mg/kg, 180 minutes): 86.7%
- Changes in intracranial pressure (intracranial pressure [1]; 1.0 mg/kg, 40 minutes): 82.6%
- Changes in intracranial pressure (intracranial pressure [1]; 1.0 mg/kg, 60 minutes): 78.1%
- Changes in intracranial pressure (intracranial pressure [1]; 1.0 mg/kg, 120 minutes): 82.2%
- Changes in intracranial pressure (intracranial pressure [1]; 1.0 mg/kg, 180 minutes): 85.2%
- Changes in intracranial pressure (intracranial pressure [1]; 2.0 mg/kg, 40 minutes): 81.5%
- Changes in intracranial pressure (intracranial pressure [1]; 2.0 mg/kg, 60 minutes): 72.5%
- Changes in intracranial pressure (intracranial pressure [1]; 2.0 mg/kg, 120 minutes): 74.6%
- Changes in intracranial pressure (intracranial pressure [1]; 2.0 mg/kg, 180 minutes): 78.9%
- LD50 at 168 h (Acute toxicity; iv): 280 mg/kg
- Changes in intracranial pressure ([3]; 0.5 mg/kg, 40 minutes): 68.0%
- Changes in intracranial pressure ([3]; 0.5 mg/kg, 60 minutes): 65.4%
- Changes in intracranial pressure ([3]; 0.5 mg/kg, 120 minutes): 74.6%
- Changes in intracranial pressure ([3]; 0.5 mg/kg, 180 minutes): 76.0%
- Changes in intracranial pressure ([3]; 1.0 mg/kg, 40 minutes): 56.7%
- Changes in intracranial pressure ([3]; 1.0 mg/kg, 60 minutes): 60.9%
- Changes in intracranial pressure ([3]; 1.0 mg/kg, 120 minutes): 59.2%
- Changes in intracranial pressure ([3]; 1.0 mg/kg, 180 minutes): 60.6%
- Changes in intracranial pressure (intracranial pressure [4]; 40 minutes): 80.3%
- Changes in intracranial pressure (intracranial pressure [4]; 60 minutes): 75.6%
- Changes in intracranial pressure (intracranial pressure [4]; 120 minutes): 82.5%
- Changes in intracranial pressure (intracranial pressure [4]; 180 minutes): 83.1%
- Changes in intracranial pressure ([5]; 1 mg/kg, 20 minutes): 96.4%
- Changes in intracranial pressure ([5]; 1 mg/kg, 60 minutes): 91.7%
- Changes in intracranial pressure ([5]; 1 mg/kg, 120 minutes): 82.1%
- Changes in intracranial pressure ([5]; 1 mg/kg, 180 minutes): 94.0%
- Changes in intracranial pressure ([5]; 1 mg/kg, 240 minutes): 91.7%
- Changes in intracranial pressure ([5]; 1 mg/kg, 300 minutes): 91.7%
- Changes in intracranial pressure ([5]; 2 mg/kg, 20 minutes): 89.5%
- Changes in intracranial pressure ([5]; 2 mg/kg, 60 minutes): 77.1%
- Changes in intracranial pressure ([5]; 2 mg/kg, 120 minutes): 68.6%
- Changes in intracranial pressure ([5]; 2 mg/kg, 180 minutes): 63.8%
- Changes in intracranial pressure ([5]; 2 mg/kg, 240 minutes): 65.7%
- Changes in intracranial pressure ([5]; 2 mg/kg, 300 minutes): 63.8%

SMILES: COc1cc(NC(C)=O)ccc1OCC(O)CN1CCN(c2ccccc2C)CC1 (centres unmarked) [Compound 2, 1-(4-acetamido-2-methoxyphenoxy)-3-[4-(2-methylphenyl)piperazino]-2-propanol]
- Changes in intracranial pressure (intracranial pressure [1]; 1.0 mg/kg, 40 minutes): 90.5%
- Changes in intracranial pressure (intracranial pressure [1]; 1.0 mg/kg, 60 minutes): 90.7%
- Changes in intracranial pressure (intracranial pressure [1]; 1.0 mg/kg, 120 minutes): 90.1%
- Changes in intracranial pressure (intracranial pressure [1]; 1.0 mg/kg, 180 minutes): 91.5%

SMILES: COc1ccc(Cc2nccc3cc(OC)c(OC)cc23)cc1OC [Papaverine, reference compound]
- Increase in common carotid blood flow ([2]; 10 μg/kg): 2.6 ± 0.2 Δml/minute
- Increase in common carotid blood flow ([2]; 25 μg/kg): 5.4 ± 0.6 Δml/minute

SMILES: COc1cc(NC(C)=O)ccc1OCC(O)CN1CCN(c2ccccc2Cl)CC1 (centres unmarked) [Compound 3, 1-(4-acetamido-2-methoxyphenoxy)-3-[4-(2-chlorophenyl)piperazino]-2-propanol]
- Changes in intracranial pressure (intracranial pressure [1]; 1.0 mg/kg, 40 minutes): 92.4%
- Changes in intracranial pressure (intracranial pressure [1]; 1.0 mg/kg, 60 minutes): 87.5%
- Changes in intracranial pressure (intracranial pressure [1]; 1.0 mg/kg, 120 minutes): 85.3%
- Changes in intracranial pressure (intracranial pressure [1]; 1.0 mg/kg, 180 minutes): 85.0%

SMILES: COc1cc(NC(C)=O)ccc1OCC(O)CN1CCN(c2cccc(F)c2)CC1 (centres unmarked) [Compound 4 (free base), 1-(4-acetamido-2-methoxyphenoxy)-3-[4-(3-fluorophenyl)piperazino]-2-propanol]
- LD50 at 168 h (Acute toxicity; po): 1550 mg/kg
- Changes in intracranial pressure (intracranial pressure [6]): 75.6%
- therapeutic index (50% lethal dose / minimum effective dose) [7]: not less than 400
